Holding throughout (format): biochemical
For one experiment, the target named is T1, human ATGL (aa 1–288) (Homo sapiens, UniProt Q96AD5).
T1 construct: human ATGL (aa 1–288); host or cells: Expi293 cells, crude lysate
Kind of experiment: TAG hydrolase assay, wild-type and chimeric ATGL variants in Expi293 lysates. An excerpt:
(§1) Since experimental three-dimensional (3D) structures for ATGL are currently not available, we utilized chimeric variants of mouse and human ATGL for the identification of binding sites. The constructs c1–c9 (Figure 5a) comprised the N-terminal […] of ATGL, which are sufficient to retain enzymatic activity.[50] In variants c1 and c2, exchange of the N-terminal 158 aa between human and mouse ATGL switched inhibitor reactivity.
(§2) Figure 5 Analysis of chimeric proteins comprising human and mouse ATGL. (a) Schematic view of the minimal active domain of wild-type and chimeric ATGL variants (c1–c9). Nonidentical aa are indicated in blue and red for mouse and human ATGL, respectively. ATGL variants were expressed in Expi293 cells and TAG hydrolase activity was determined in cell lysates in the presence or absence of NG-497 (10 μM) and Atglistatin (10 μM), respectively. Inhibition of ATGL variants by respective inhibitors (tick mark) and lack of inhibition (cross) is indicated at the right edge. The expression of all ATGL variants was confirmed by Western blotting analysis (Figure S6). […]
(§3) Expression of recombinant ATGL constructs and preparation of cell lysates. […] Protein concentrations were determined using Bio-Rad protein assay (Bio-Rad 785, Bio-Rad Laboratories, Munich, Germany) using BSA as standard. […]

The next experiment addresses T2, mouse ATGL (aa 1–288) (Mus musculus, UniProt Q8BJ56).
T2 construct: mouse ATGL (aa 1–288); host or cells: Expi293 cells, crude lysate
Put plainly: TAG hydrolase assay, wild-type and chimeric ATGL variants. Conditions: wild-type mouse ATGL (aa 1–288).
Description: as §1, §2, §3

Another experiment addresses T3, mouse ATGL I69F (Mus musculus, UniProt Q8BJ56, I69F).
T3 construct: host or cells: Expi293 cells, cell lysate
Kind of experiment: TAG hydrolase assay, humanized mouse ATGL variants. The following applies: variant I69F, NG-497 (10 μM) or Atglistatin (10 μM). As for the experimental part: (§4) Figure 5 Analysis of chimeric proteins comprising human and mouse ATGL. (a) Schematic view of the minimal active domain of wild-type and chimeric ATGL variants (c1–c9). Nonidentical aa are indicated in blue and red for mouse and human ATGL, respectively. ATGL variants were expressed in Expi293 cells and TAG hydrolase activity was determined in cell lysates in the presence or absence of NG-497 (10 μM) and Atglistatin (10 μM), respectively. Inhibition of ATGL variants by respective inhibitors (tick mark) and lack of inhibition (cross) is indicated at the right edge. The expression of all ATGL variants was confirmed by Western blotting analysis (Figure S6). (b) Dose-dependent inhibition of human ATGL (aa 1–288) and c1 (human aa 1–158 and mouse aa 159–288) by NG-497. (c) Dose-dependent inhibition of mouse ATGL (aa 1–288) and c2 (mouse aa 1–158 and human aa 159–288) by Ai. IC50 values are shown in the insets. Data are presented as relative inhibition of respective DMSO controls and are indicated as mean ± SD. (d) 3D homology model of the minimal active domain of mouse ATGL (M1–L254) depicted as a cartoon. Residues 1–178 are in blue, and residues 179–254 are in gray. S47 and D166 comprising the active site are represented as green sticks. T101, C106, R109, N111, and S133 are colored in orange, A60, N68, I69, T93, C97, and T146 are colored in magenta. TEXT PRINTED IN THE PICTURE: (b) NG-497: IC50 [μM] (human): 1.3±0.1; IC50 [μM] (c1): 1.3±0.1 | (b) Ai: IC50 [μM] (human): n.det.; IC50 [μM] (c1): n.det. | (c) NG-497: IC50 [μM] (mouse): n.det.; IC50 [μM] (c2): n.det. | (c) Ai: IC50 [μM] (mouse): 2.5±0.3; IC50 [μM] (c2): 2.4±0.1 […]
(§5) The region between aa 60 and 146 of human and mouse ATGL comprises 12 nonidentical aa. We generated 3D homology models for the minimal active domain of mouse ATGL to obtain more detailed insight into the topology of the relevant region (Figure 5d). Based on this model, aa T101, C106, R109, N111, and S133 locate at peripheral (loop) regions (indicated in orange, Figure 5d). […] For all other nonidentical aa (indicated in magenta, Figure 5d), we generated variants with single aa substitutions. The humanized variants A60V, N68K, T93I, and C97F were inactivated by Ai but not NG-497 (Figure 5a).
(§6) Experimental details, materials, and methods
(§7) Expression of recombinant ATGL constructs and preparation of cell lysates. Expi293 cells were cultivated in Expi293 Expression Medium (GIBCO, Thermo Fisher Scientific, Waltham, USA) at standard conditions (37°C, 5% CO2, 95% humidified atmosphere, 125 rpm). DNA constructs containing ATGL from different species and chimeric ATGL variants in pcDNA3.1(+)myc-His C Vector were obtained from BioCat GmbH (Heidelberg, Germany). Cells were transfected with ExpiFectamine293 Transfection Kit (GIBCO) in Opti-Mem reduced serum medium (GIBCO) according to the manufacturer’s instructions. After 48 h, cells were harvested by centrifugation and washed three times with PBS. Cells were disrupted in buffer A (0.25 M sucrose, 1 mM EDTA, 1 mM dithiothreitol, 20µg/ml leupeptin, 2 µg/ml antipain, 1 µg/ml pepstatin, pH 7.0) by sonication (Virsonic 475, Virtis, Gardiner, USA). Nuclei and debris were removed by centrifugation at 1,000 g and 4°C for 10 min. Protein concentrations were determined using Bio-Rad protein assay (Bio-Rad 785, Bio-Rad Laboratories, Munich, Germany) using BSA as standard.
(§8) Expression and purification of mouse CGI-58. CGI-58 was expressed and purified as described 1. In brief, the coding sequence of mouse Cgi-58 was cloned into pHis-Sumo and co-transformed with the plasmid pTf16 expressing the chaperone Tig into E. coli BL21(DE3). Cells were cultured overnight at 37°C and 180 rpm in the presence of 40 µg/ml kanamycin and 34 µg/ml chloramphenicol. Thereafter, cells were transferred into fresh LB medium, grown until OD600 of 0.6, and expression was induced by the addition of 0.5 mM IPTG. After overnight incubation at 30°C, cells were harvested at 4,500 x g and 4°C for 20 min, […]

The next experiment concerns the target T4, mouse ATGL T146G (Mus musculus, UniProt Q8BJ56, T146G).
T4 construct: host or cells: Expi293 cells, cell lysate
Kind of experiment: TAG hydrolase assay, humanized mouse ATGL variants. Conditions: variant T146G, NG-497 (10 μM) or Atglistatin (10 μM). On the procedure:
as §4, §5, §6, §7, §8

SMILES strings stand for the structures. pIC50: −log10 of the molar value. Values joined by “and” are separate entries in the source; they are usually repeats but may differ in a detail not shown here. Equal entries are not always repeated. Where two headings read alike, the source gives them in different places.

T2 sequence (Q8BJ56 1-288): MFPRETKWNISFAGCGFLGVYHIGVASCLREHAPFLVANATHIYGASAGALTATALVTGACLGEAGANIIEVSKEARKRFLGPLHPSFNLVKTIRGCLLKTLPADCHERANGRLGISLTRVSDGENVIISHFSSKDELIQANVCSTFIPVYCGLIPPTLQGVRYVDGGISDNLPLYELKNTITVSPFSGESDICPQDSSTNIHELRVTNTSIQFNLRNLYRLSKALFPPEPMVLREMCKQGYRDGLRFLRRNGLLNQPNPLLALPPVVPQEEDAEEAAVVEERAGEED
T4 sequence (Q8BJ56 whole entry T146G): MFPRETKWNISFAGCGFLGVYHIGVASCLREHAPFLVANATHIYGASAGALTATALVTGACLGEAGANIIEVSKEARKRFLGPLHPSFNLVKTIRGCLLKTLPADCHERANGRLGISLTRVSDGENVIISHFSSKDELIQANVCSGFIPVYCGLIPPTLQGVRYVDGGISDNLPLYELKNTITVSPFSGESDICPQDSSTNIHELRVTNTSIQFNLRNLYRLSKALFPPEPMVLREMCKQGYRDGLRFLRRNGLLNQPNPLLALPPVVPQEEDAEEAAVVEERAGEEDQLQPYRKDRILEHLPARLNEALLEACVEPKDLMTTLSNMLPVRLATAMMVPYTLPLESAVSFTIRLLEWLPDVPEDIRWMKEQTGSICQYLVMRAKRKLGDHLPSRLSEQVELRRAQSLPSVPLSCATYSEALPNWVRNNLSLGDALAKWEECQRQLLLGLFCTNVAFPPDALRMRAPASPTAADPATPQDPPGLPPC
T3 sequence (Q8BJ56 whole entry I69F): as the sequence (Q8BJ56 whole entry T146G) above, with I69F, G146T counted along it
T1 sequence (Q96AD5 1-288): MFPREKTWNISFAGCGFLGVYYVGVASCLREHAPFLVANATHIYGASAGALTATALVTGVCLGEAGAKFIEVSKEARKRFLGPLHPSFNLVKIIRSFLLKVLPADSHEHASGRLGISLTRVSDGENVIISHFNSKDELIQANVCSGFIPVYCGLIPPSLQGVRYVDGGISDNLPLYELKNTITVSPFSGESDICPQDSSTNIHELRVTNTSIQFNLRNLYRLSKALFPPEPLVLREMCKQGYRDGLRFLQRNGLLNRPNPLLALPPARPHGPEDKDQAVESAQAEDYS

Consider `CN(C)C(=O)Nc1cccc(-c2ccc(N(C)C)cc2)c1` [Atglistatin, reference compound], for which the IC50 result on human ATGL (aa 1–288) was “ineffective”. The pIC50 at mouse ATGL (aa 1–288) (read-out: IC50) was ~5.60 and 5.60. Moreover, the “inhibition of TAG hydrolase activity” value on mouse ATGL I69F and against mouse ATGL T146G was “neither inhibited” in each case.

For the molecule `CCOc1ccc(-c2cc(OC)cc(C(=O)OC(C)C)n2)cc1` [NG-497], the pIC50 on human ATGL (aa 1–288) (read-out: IC50) is 5.89. The IC50 entry against mouse ATGL (aa 1–288) was “ineffective”. In addition, the “inhibition of TAG hydrolase activity” value against mouse ATGL I69F and at mouse ATGL T146G was “neither inhibited” in each case.

What is called pIC50 is the negative decadic logarithm of the IC50, by convention in mol/L.

The values above are taken from publication PMC9011347, “Small-Molecule Inhibitors Targeting Lipolysis in Human Adipocytes” (Journal of the American Chemical Society, 2022).
